Laboratory results reported in the supplement of paper PMC10307832.

What was measured:
Experiment in all cases: relative viability (nuclei count vs DMSO), 5 days (fraction); higher = more cells survive
Carboplatin + Alpelisib = compound: C1CC(C1)(C(=O)O)C(=O)O.[NH2-].[NH2-].[Pt+2] [Carboplatin] + Cc1nc(NC(=O)N2CCC[C@H]2C(N)=O)sc1-c1ccnc(C(C)(C)C(F)(F)F)c1 [Alpelisib] (partner 2 µM)
Method in brief: (§1)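 A single step with final 0.05% Triton X-100, 1% formaldehyde and 1 ug/ml Hoechst fixed the cells and stained nuclei 5 days after treatment. Lung cancer cell lines in 1536-well plates had been treated by pin tool the day after seeding with one drug alone or a fixed anchor-drug dose plus five library-drug doses (not always all listed) in √10 steps, and nuclei were counted on 4× images. Relative viability is the ratio of nuclei in treated wells to nuclei in vehicle wells, taken as the median of duplicate plates.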

GSK126 + Trametinib = compound: CC[C@H](C)N1C=C(C2=C(C=C(C=C21)C3=CN=C(C=C3)N4CCNCC4)C(=O)NCC5=C(C=C(NC5=O)C)C)C [GSK126] + CC(=O)Nc1cccc(-n2c(=O)n(C3CC3)c(=O)c3c(Nc4ccc(I)cc4F)n(C)c(=O)c(C)c32)c1 [Trametinib] (partner 0.02 µM)
Method in brief: as §1

GSK126 + Olaparib = compound: CC[C@H](C)N1C=C(C2=C(C=C(C=C21)C3=CN=C(C=C3)N4CCNCC4)C(=O)NCC5=C(C=C(NC5=O)C)C)C [GSK126] + O=C(c1cc(Cc2n[nH]c(=O)c3ccccc23)ccc1F)N1CCN(C(=O)C2CC2)CC1 [Olaparib] (partner 8 µM)
Method in brief: as §1

MLN4924 + Lapatinib = compound: NS(=O)(=O)OC[C@@H]1C[C@@H](n2ccc3c(N[C@H]4CCc5ccccc54)ncnc32)C[C@@H]1O [MLN4924] + CS(=O)(=O)CCNCc1ccc(-c2ccc3ncnc(Nc4ccc(OCc5cccc(F)c5)c(Cl)c4)c3c2)o1 [Lapatinib] (partner 2 µM)
Method in brief: as §1

Cell Line | relative viability (Carboplatin + Alpelisib; first compound 0.08 µM) | relative viability (Carboplatin + Alpelisib; first compound 0.253 µM) | relative viability (Carboplatin + Alpelisib; first compound 0.8 µM) | relative viability (Carboplatin + Alpelisib; first compound 2.53 µM) | relative viability (Carboplatin + Alpelisib; first compound 8 µM) | relative viability (GSK126 + Trametinib; first compound 0.08 µM) | relative viability (GSK126 + Trametinib; first compound 0.253 µM) | relative viability (GSK126 + Trametinib; first compound 0.8 µM) | relative viability (GSK126 + Trametinib; first compound 2.53 µM) | relative viability (GSK126 + Trametinib; first compound 8 µM) | relative viability (GSK126 + Olaparib; first compound 0.08 µM) | relative viability (GSK126 + Olaparib; first compound 0.253 µM) | relative viability (GSK126 + Olaparib; first compound 0.8 µM) | relative viability (GSK126 + Olaparib; first compound 2.53 µM) | relative viability (GSK126 + Olaparib; first compound 8 µM) | relative viability (MLN4924 + Lapatinib; first compound 0.04 µM) | relative viability (MLN4924 + Lapatinib; first compound 0.1265 µM) | relative viability (MLN4924 + Lapatinib; first compound 0.4 µM) | relative viability (MLN4924 + Lapatinib; first compound 1.265 µM) | relative viability (MLN4924 + Lapatinib; first compound 4 µM)
NCI-H2170 | 0.882 | 0.852 | 0.801 | 0.794 | 0.636 | 1.05 | 0.964 | 0.893 | 0.891 | 1.03 | 0.603 | 0.669 | 0.559 | 0.54 | 0.529 | 0.258 | 0.301 | 0.25 | 0.208 | 0.228
NCI-H2228 | 0.813 | 0.687 | 0.561 | 0.593 | 0.566 | 0.677 | 0.502 | 0.407 | 0.606 | 0.513 | 0.649 | 0.75 | 0.511 | 0.669 | 0.691 |  | 0.638 | 0.271 | 0.13 | 0.161
NCI-H2347 | 1.02 | 1.12 | 1 | 0.97 | 0.838 | 0.289 | 0.276 | 0.261 | 0.303 | 0.298 | 0.562 | 0.524 | 0.529 | 0.581 | 0.62 | 0.746 | 0.897 | 0.487 | 0.338 | 0.412
NCI-H2405 | 0.925 | 0.734 | 0.671 | 0.763 | 0.639 | 0.817 | 0.587 | 0.611 | 0.614 | 0.636 | 0.887 | 0.84 | 0.844 | 0.89 | 0.744 | 1.26 | 1.05 | 0.511 | 0.192 | 0.195
NCI-H3122 | 0.773 | 0.862 | 0.869 | 0.762 | 0.764 | 0.198 | 0.186 | 0.216 | 0.22 | 0.245 | 0.713 | 0.712 | 0.628 | 0.654 | 0.628 | 0.991 | 0.629 | 0.293 | 0.177 | 0.206
PC-3 [JPC-3] | 1.06 | 1.11 | 0.992 | 1 | 0.834 | 0.763 | 0.694 | 0.693 | 0.66 | 0.634 | 1.1 | 1.14 | 1.09 | 1.15 | 1.12 | 0.478 | 0.51 | 0.277 | 0.261 | 0.262
